According to US9586970B2, “Imidazole derivatives” (Hoffmann-La Roche Inc., priority 2014, dated 2017):

Target: human PDE10A (Homo sapiens (Human), UniProt Q9Y233)
Assay: human PDE10A full length assay ([3H]-cGMP SPA)
Type: biochemical
Details: full length PDE10A enzyme, 50 nM cGMP + 50 nM [3H]-cGMP, 20 minutes at room temperature; read-out: PDE10A inhibition IC50
Protocol: The human PDE10A full length assay was performed in 96-well micro titer plates. The reaction mixture of 50 μl contained 20 mM HEPES pH=7.5/10 mM MgCl2/0.05 mg/ml BSA (Sigma cat. #A-7906), 50 nM cGMP (Sigma, cat. #G6129) and 50 nM [3H]-cGMP (GE Healthcare, cat. #TRK392 S.A. 13.2 Ci/mmol), 3.75 ng/well PDE10A enzyme (Enzo Life Science, Lausen, Switzerland cat #SE-534) with or without a specific test compound. A range of concentrations of the potential inhibitor was used to generate data for calculating the concentration of inhibitor resulting in 50% of the effect (e.g. IC50, the concentration of the competitor inhibiting PDE10A activity by 50%). Non-specific activity was tested without the enzyme. The reaction was initiated by the addition of the substrate solution (cGMP and [3H]-cGMP) and allowed to progress for 20 minutes at room temperature. The reaction was terminated by adding 25 μl of YSi-SPA scintillation beads (GE Healthcare, cat. # RPNQ0150) in 18 mM zinc sulphate solution (stop reagent). After 1 h under shaking, the plate was centrifuged one minute at 170 g to allow beads to settle. Afterwards, radioactive counts were measured on a Perkin Elmer TopCount Scintillation plate reader.

human PDE10A, sequence (Q9Y233 other isoform, or with tags, fused parts or gaps): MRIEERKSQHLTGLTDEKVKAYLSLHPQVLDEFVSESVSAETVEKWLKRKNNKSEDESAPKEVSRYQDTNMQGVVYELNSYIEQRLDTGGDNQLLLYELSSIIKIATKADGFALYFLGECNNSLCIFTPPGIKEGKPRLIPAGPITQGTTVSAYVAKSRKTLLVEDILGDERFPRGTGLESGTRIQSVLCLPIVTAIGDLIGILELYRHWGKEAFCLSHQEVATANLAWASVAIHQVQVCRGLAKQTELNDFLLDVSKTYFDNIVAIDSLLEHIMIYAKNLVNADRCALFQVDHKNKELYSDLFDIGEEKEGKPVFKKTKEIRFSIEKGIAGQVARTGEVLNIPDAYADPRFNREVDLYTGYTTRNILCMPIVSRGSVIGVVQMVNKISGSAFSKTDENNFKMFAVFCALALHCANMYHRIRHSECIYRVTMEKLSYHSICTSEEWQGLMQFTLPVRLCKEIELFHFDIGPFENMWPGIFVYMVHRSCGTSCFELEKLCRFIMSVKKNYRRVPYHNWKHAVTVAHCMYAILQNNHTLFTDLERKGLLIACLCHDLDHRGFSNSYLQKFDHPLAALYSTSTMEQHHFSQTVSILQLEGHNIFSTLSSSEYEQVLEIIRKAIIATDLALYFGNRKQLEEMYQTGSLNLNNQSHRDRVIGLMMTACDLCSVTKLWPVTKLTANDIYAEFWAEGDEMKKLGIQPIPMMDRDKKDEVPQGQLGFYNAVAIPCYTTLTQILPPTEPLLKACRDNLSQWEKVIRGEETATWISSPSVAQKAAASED

Row | Compound | IC50 [nM]
1 | Cc1nc(C#Cc2nc(N3CCCC3=O)cn2C)nc2c(C)cccc12 [Example 9, 1-(2-((4,8-dimethylquinazolin-2-yl)ethynyl)-1-methyl-1H-imidazol-4-yl)pyrrolidin-2-one] | 4.6
2 | Cc1ncc(C)n2nc(CCc3nc(N4CCCC4=O)cn3C3CC3)nc12 [Example 7, 1-{1-Cyclopropyl-2-[2-(5,8-dimethyl-[1,2,4]triazolo[1,5-a]pyrazin-2-yl)-ethyl]-1H-imidazol-4-yl}-pyrrolidin-2-one] | 27
3 | Cc1c(C(F)(F)F)nc2ccc(CCc3nc(N4CCCC4=O)cn3-c3ccccc3)nn12 [Example 23, 1-(2-{2-[3-Methyl-2-(trifluoromethyl)imidazo[1,2-b]pyridazin-6-yl]ethyl}-1-phenyl-1H-imidazol-4yl)pyrrolidin-2-one] | 3.1
4 | Cc1cnc(C)n2nc(CCc3nc(N4CCCC4=O)cn3CC3CC3)nc12 [Example 16, 1-[1-(Cyclopropylmethyl)-2-(2-{5,8-dimethyl-[1,2,4]triazolo[1,5-c]pyrimidin-2-yl}ethyl)-1H-imidazol-4-yl]pyrrolidin-2-one] | 14.8
5 | Cc1ncc(C)n2nc(CCc3nc(N4CCCC4=O)cn3CC(F)F)nc12 [Example 14, 1-[1-(2,2-difluoroethyl)-2-(2-{4,7-dimethyl-[1,2,4]triazolo[1,5-a]pyrazin-2-yl}ethyl)-1H-imidazol-4-yl]pyrrolidin-2-one] | 46.9
6 | Cc1ncc(C)n2nc(CCc3nc(-n4ccccc4=O)cn3CC3CC3)nc12 [Example 4, 1-(1-(Cyclopropylmethyl)-2-(2-(5,8-dimethyl-[1,2,4]triazolo[1,5-a]pyrazin-2-yl)ethyl)-1H-imidazol-4-yl)pyridin-2(1H)-one] | 150
7 | Cc1ncc(C)n2nc(CCc3nc(-n4ccccc4=O)cn3C)nc12 [Example 5, 1-(2-(2-(5,8-dimethyl-[1,2,4]triazolo[1,5-a]pyrazin-2-yl)ethyl)-1-methyl-1H-imidazol-4-yl)pyridin-2(1H)-one] | 195
8 | Cc1ncc(C)n2nc(CCc3nc(N4CCCC4=O)cn3-c3ccccc3)nc12 [Example 2, 1-(2-(2-(5,8-dimethyl-[1,2,4]triazolo[1,5-a]pyrazin-2-yl)ethyl)-1-phenyl-1H-imidazol-4-yl)pyrrolidin-2-one] | 1.3
9 | Cc1c(C(F)(F)F)nc2ccc(C#Cc3nc(N4CCCC4=O)cn3-c3ccccc3)nn12 [Example 25, 1-(2-{2-[3-methyl-2-(trifluoromethyl)imidazo[1,2-b]pyridazin-6-yl]ethynyl}-1-phenyl-1H-imidazol-4-yl) pyrrolidin-2-one] | 21.9
10 | 1-{2-[(E)-2-{4,7-Dimethyl-[1,2,4]triazolo[1,5-a]pyrazin-2-yl}ethenyl]-1-phenyl-1H-imidazol-4-yl}pyrrolidin-2-one [Example 20] | 19.4
11 | Cc1ncc(C)n2nc(/C=C/c3nc(N4CCN(C)C4=O)cn3C)nc12 [Example 8, 2′-[(E)-2-(5,8-Dimethyl-[1,2,4]triazolo[1,5-a]pyrazin-2-yl)-vinyl]-3, 1′-dimethyl-4,5-dihydro-3H, 1′H-[1,4′]biimidazolyl-2-one] | 162
12 | Cc1cc(C)n2nc(CCc3nc(N4CCCC4=O)cn3C)nc2n1 [Example 21, 1-[2-(2-{5,7-dimethyl-[1,2,4]triazolo[1,5-a]pyrimidin-2-yl}ethyl)-1-methyl-1H-imidazol-4-yl]pyrrolidin-2-one] | 176
13 | Cc1ncc(C)n2nc(CCc3nc(N4CCCC4=O)cn3CC3CC3)nc12 [Example 12, 1-[1-(Cyclopropylmethyl)-2-(2-{4,7-dimethyl-[1,2,4]triazolo[1,5-a]pyrazin-2-yl}ethyl)-1H-imidazol-4-yl]pyrrolidin-2-one] | 16.9
14 | Cc1ncc(C)n2nc(/C=C/c3nc(N4CCCC4=O)cn3C3CC3)nc12 [Example 6, 1-[1-cyclopropyl-2-[(E)-2-(5,8-dimethyl-[1,2,4]triazolo[1,5-a]pyrazin-2-yl)ethenyl]imidazol-4-yl]pyrrolidin-2-one] | 81
15 | Cc1cnc(C)n2nc(CCc3nc(N4CCCC4=O)cn3C)nc12 [Example 1, 1-(2-(2-(5,8-dimethyl-[1,2,4]triazolo[1,5-c]pyrimidin-2-yl)ethyl)-1-methyl-1H-imidazol-4-yl)pyrrolidin-2-one] | 39
16 | Cc1c(C(F)(F)F)nc2ccc(CCc3nc(N4CCCC4=O)cn3C)nn12 [Example 22, 1-(1-Methyl-2-{2-[3-methyl-2-(trifluoromethyl)imidazo[1,2-b]pyridazin-6-yl]ethyl}-1H-imidazol-4yl) pyrrolidin-2-one] | 117
17 | Cc1ncc(C)n2nc(/C=C/c3nc(N4CCCC4=O)cn3C)nc12 [Example 10, 1-{2-[(E)-2-{4,7-dimethyl-[1,2,4]triazolo[1,5-a]pyrazin-2-yl}ethenyl]-1-methyl-1H-imidazol-4-yl}pyrrolidin-2-one] | 54.6
18 | Cc1ncc(C)n2nc(CCc3nc(N4CCCC4=O)cn3C)nc12 [Example 11, 1-[2-(2-{4,7-Dimethyl-[1,2,4]triazolo[1,5-a]pyrazin-2-yl}ethyl)-1-methyl-1H-imidazol-4-yl]pyrrolidin-2-one] | 18
19 | CNC(=O)c1cc(CCc2nc(N3CCCC3=O)cn2C)nn2c(C)c(C(F)(F)F)nc12 [Example 26] | 112
20 | Cc1ncc(C)n2nc(/C=C/c3nc(N4CCCC4=O)cn3-c3ccccc3)nc12 [Example 3] | 9.5
21 | Cc1ncc(C)n2nc(C#Cc3nc(N4CCCC4=O)cn3C)nc12 [Example 15, 1-[2-(2-{4,7-Dimethyl-[1,2,4]triazolo[1,5-a]pyrazin-2-yl}ethynyl)-1-methyl-1H-imidazol-4-yl]pyrrolidin-2-one] | 29
22 | Cc1c(C(F)(F)F)nc2ccc(C#Cc3nc(N4CCCC4=O)cn3C)nn12 [Example 24, 1-(1-Methyl-2-{2-[3-methyl-2-(trifluoromethyl)imidazo[1,2-b]pyridazin-6-yl]ethynyl}-1H-imidazol-4-yl)pyrrolidin-2-one] | 75.5
23 | CNC(=O)c1cc(CCc2nc(N3CCCC3=O)cn2-c2ccccc2)nn2c(C)c(C(F)(F)F)nc12 [Example 27, N,3-Dimethyl-6-{2-[4-(2-oxopyrrolidin-1-yl)-1-phenyl-1H-imidazol-2-yl]ethyl}-2-(trifluoromethyl)imidazo[1,2-b]pyridazine-8-carb oxamide] | 2.9
24 | Cc1cnc(C)n2nc(CCc3nc(N4CCCC4=O)cn3CC(F)F)nc12 [Example 19, 1-[1-(2,2-difluoroethyl)-2-(2-{5,8-dimethyl-[1,2,4]triazolo[1,5-c]pyrimidin-2-yl}ethyl)-1H-imidazol-4-yl]pyrrolidin-2-one] | 26.8
25 | Cc1cnc(C)n2nc(CCc3nc(N4CCCC4=O)cn3-c3ccccc3)nc12 [Example 17, 1-[2-[2-(5,8-dimethyl-[1,2,4]triazolo[1,5-c]pyrimidin-2-yl)ethyl]-1-phenyl-imidazol-4-yl]pyrrolidin-2-one] | 3.2
26 | Cc1cnc(C)n2nc(CCc3nc(N4CCCC4=O)cn3CC(F)(F)F)nc12 [Example 18, 1-[2-(2-{5,8-dimethyl-[1,2,4]triazolo[1,5-c]pyrimidin-2-yl}ethyl)-1-(2,2,2-trifluoroethyl)-1H-imidazol-4-yl]pyrrolidin-2-one] | 168
27 | Cc1ncc(C)n2nc(CCc3nc(N4CCCC4=O)cn3CC(F)(F)F)nc12 [Example 13, 1-[2-(2-{4,7-Dimethyl-[1,2,4]triazolo[1,5-a]pyrazin-2-yl}ethyl)-1-(2,2,2-trifluoroethyl)-1H-imidazol-4-yl]pyrrolidin-2-one] | 36.7
